# Legend:
# [1] = system: Escherichia coli MG1655 wildtype and single-gene deletion strains; experiment: Antimicrobial sensitivity assays (CFU time course of deletion strains and wildtype treated with oxidants or antibiotics); assay type: cell-based; details: 500 ng/mL gentamicin, FIG. 6C
# Experimental: Escherichia coli MG1655 was used in this study. Genetic deletions of aceA, appB, atpC, cyoA, edd, fumB, fbaB, gdhA, gltB, gnd, mqo, nuoG, pfkB, pta, pykA, rpiB, sdhC, sucC, talB, tktB and zwf were transduced from the Keio single-gene deletion knockout library^63 into MG1655 using the P1 phage method, and confirmed with PCR. The media used for all experiments was M9 minimal media with 10 mM glucose as the sole carbon source or MOPS minimal media with 10 mM glucose (for the HyPer protein experiments).
# Strains were grown aerobically from an initial inoculation of OD600=0.01 to OD600=0.16-0.20 in 250 mL baffled flasks filled to 1/10th the total volume and shaken at 300 rpm at 37° C. For menadione, H2O2, and ampicillin sensitivity assays, time-zero samples were collected (200-400 μL), then 1 mL aliquots were transferred to 14 mL test tubes, and appropriate volumes of menadione, H2O2, or ampicillin stock solutions, not in excess of 15 μL, were added to obtain the final concentrations (1 mM menadione, 5 mM H2O2, 7.5 μg/mL ampicillin, 100 ng/mL ofloxacin, 15 ng/mL ciprofloxacin, 500 ng/mL gentamicin, 10 μg/mL tetracycline, and 15 μg/mL chloramphenicol). […] Colony forming units were counted approximately 16-18 hours after plating.
# [2] = system: Escherichia coli MG1655 wildtype cells; experiment: Carboxin inhibitor experiments (CFU survival, alone and combined with H2O2 or ampicillin; dose response and synergy); assay type: cell-based
# Experimental: Strains were grown aerobically from an initial inoculation of OD600=0.01 to OD600=0.16-0.20 in 250 mL baffled flasks filled to 1/10th the total volume and shaken at 300 rpm at 37° C. Time-zero samples were collected (200-400 μL), then 1 mL aliquots were transferred to 14 mL test tubes. Carboxin solubilized in 100% ethanol or ethanol alone was added to the tubes. […] Drug synergism was calculated using the Bliss Independence and Highest Single Agent models^52, 53. Specifically, the formula,
# was used to calculate synergism with the Bliss Independence model. A and B are the effects of the two drugs in isolation, whereas, BICAB is the combined effect of the two drugs as predicted by the Bliss Independence model. If CAB, the experimentally-determined combined effect of the two drugs, is >BICAB, synergy is observed. In contrast, in the Highest Single Agent model, if CAB>max(A, B) synergy is observed. Since cell death was monitored, the quantitative effect of each compound was defined as the fractional reduction of the population, R=1−CFUt/CFU0, where CFUt is the number of CFUs measured after treatment, and CFU0 is the number of CFUs measured before treatment. R=1 indicates complete loss of the population, R=0 indicates a population in stasis, and R<0 indicates a growing population. […] The Bliss Independence model can be written as follows,
# If A is a compound that reduces CFUs, such as ampicillin, its effect above the MIC will be 0≦A≦1, whereas if B is a compound that allows growth at all concentrations, its effect will be B<0 regardless of the concentration. Rearrangement of the above yields,
# Since equation 3 yields BICAB/A<1 for all B<0 and 0<A<1, the Highest Single Agent model requires CAB/A>1 and the Bliss Independence model requires CAB/BICAB>1 for synergy, the Highest Single Agent model will always be a more strict synergy requirement under these conditions. […] Modeling Escherichia coli ROS Metabolism
# [3] = cited from earlier work
compound,measurement,setting,value
gentamicin,sensitivity of many target strains compared to wildtype,[1]; many predicted target deletion strains,decreased sensitivity
same,sensitivity of ΔatpC strain compared to wildtype,[1]; ΔatpC E. coli,increased sensitivity
CC1(C)S[C@@H]2[C@H](NC(=O)[C@H](N)c3ccccc3)C(=O)N2[C@H]1C(=O)O [ampicillin],ampicillin concentrations synergistic with carboxin,"[2]; carboxin 250 μM or greater, Bliss Independence and Highest Single Agent models, FIG. 8",7.5 to 10 µg/mL
CC1=C(C(=O)Nc2ccccc2)SCCO1 [carboxin],sensitivity of wildtype cells to ampicillin with carboxin compared to ampicillin alone,"[2]; 500 μM carboxin + 10 μg/mL ampicillin, FIG. 4F",significantly more sensitive
same,sensitivity of wildtype cells to H2O2 with carboxin compared to H2O2 alone,"[2]; 500 μM carboxin + 5 mM H2O2, FIG. 4E",increased sensitivity
same,effect of carboxin alone on growth of wildtype cells,"[2]; carboxin alone, 500 μM, wildtype E. coli, FIGS. 4E, 4F",no effect on the growth
same,lethality / growth of E. coli with carboxin,[2]; concentrations as high as 1 mM,non-lethal and allowed significant growth
same,"suitability as antibiotic adjuvant, human toxicity",[3],not suitable as an antibiotic adjuvant due to human toxicity issues
